Reference: ChEMBL document CHEMBL1201862, “PubChem BioAssay data set” (2004)
The source made the active and inactive calls.

Columns and labels:
[1] = molecular target: Alkaline phosphatase, placental type (Homo sapiens, UniProt P05187); assay: human placental alkaline phosphatase inhibition – biochemical, luminescence, confirmation (AID 1512); format: functional
[2] = molecular target: T1, Alkaline phosphatase, tissue-nonspecific isozyme (Homo sapiens, UniProt P05186); assay: potency against alkaline phosphatase TNAP – biochemical, luminescent, dose response, SAR follow-up (AID 1056)
T1 sequence (P05186 whole entry): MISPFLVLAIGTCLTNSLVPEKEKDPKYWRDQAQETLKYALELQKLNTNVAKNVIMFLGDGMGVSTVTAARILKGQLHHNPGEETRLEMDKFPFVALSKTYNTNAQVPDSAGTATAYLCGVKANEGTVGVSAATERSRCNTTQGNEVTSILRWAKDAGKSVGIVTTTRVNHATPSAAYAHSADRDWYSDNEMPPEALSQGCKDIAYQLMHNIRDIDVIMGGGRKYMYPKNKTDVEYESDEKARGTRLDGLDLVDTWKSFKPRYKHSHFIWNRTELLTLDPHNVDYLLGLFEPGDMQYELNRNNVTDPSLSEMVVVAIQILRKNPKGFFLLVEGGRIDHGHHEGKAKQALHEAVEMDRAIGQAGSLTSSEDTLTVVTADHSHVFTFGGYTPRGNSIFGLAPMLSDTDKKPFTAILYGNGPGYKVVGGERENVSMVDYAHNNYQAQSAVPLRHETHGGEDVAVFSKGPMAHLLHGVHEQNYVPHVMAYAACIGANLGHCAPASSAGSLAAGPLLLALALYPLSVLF

[3] = molecular target: Glyceraldehyde-3-phosphate dehydrogenase (Homo sapiens, UniProt P04406)
CAAX prenyl protease 2 [4] = molecular target: T2, CAAX prenyl protease 2 (Homo sapiens, UniProt Q9Y256); assay: inhibition of Ras-converting CAAX protease Rce1 – biochemical, yeast membranes, quenched-peptide fluorescence, cherry-pick, dose response (AID 588849)
T2 sequence (Q9Y256 whole entry): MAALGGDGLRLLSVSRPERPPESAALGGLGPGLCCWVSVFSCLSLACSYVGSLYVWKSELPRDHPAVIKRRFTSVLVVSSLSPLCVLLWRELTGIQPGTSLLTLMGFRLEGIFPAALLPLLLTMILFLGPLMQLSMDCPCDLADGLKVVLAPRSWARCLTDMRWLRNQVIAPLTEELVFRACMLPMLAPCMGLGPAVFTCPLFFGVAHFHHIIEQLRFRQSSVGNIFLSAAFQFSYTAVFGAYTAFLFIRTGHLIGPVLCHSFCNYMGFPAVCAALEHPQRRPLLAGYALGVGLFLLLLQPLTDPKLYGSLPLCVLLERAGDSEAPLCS

Trypsin = Trypsin (Sus scrofa, UniProt P00761); assay: trypsin protease activity blockade – biochemical, quenched peptide fluorescence, cherry-pick, selectivity assay for Rce1 protease inhibitor project, dose response (AID 488789)
CAAX prenyl protease 2 [5] = molecular target: CAAX prenyl protease 2 (Saccharomyces cerevisiae S288c, UniProt Q03530); format: biochemical
HEK293 [6] = assay: cells; format: functional, cell-based; settings: Homo sapiens
Streptococcus = assay: GAS UMAA2166 growth inhibition – luminescence, BacTiterGlo, counter-screen for streptokinase expression inhibitor project, dose response (AID 1915); format: functional, organism-based;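 further: potency for reduction of bacterial viability or growth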
HEK293 [7] = assay: inhibition of NOD1-driven NF-kB reporter – cell-based, luminescence, uHTS, primary screen (AID 1578); format: functional; settings: Homo sapiens
[8] = molecular target: Nucleotide-binding oligomerization domain-containing protein 2 (Homo sapiens, UniProt Q9HC29); assay: inhibition of NOD2-driven NF-kB reporter – cell-based, luminescence, uHTS, HEK293 (AID 1566); format: functional
HEK293 [9] = assay: NOD2 signaling inhibitors in MDP-stimulated cells, cell-based, uHTS, luminescence (AID 2001); format: functional; settings: Homo sapiens
HEK293 [10] = assay: cells; format: functional, cell-based; settings: Homo sapiens; remark: listed apart in the source
Streptokinase A = molecular target: T3, Streptokinase A (Streptococcus pyogenes serotype M1, UniProt P10520); assay: viability-normalized secreted streptokinase activity reduction – plasminogen activation absorbance, OD405, dose response (AID 1914); format: functional, Streptococcus pyogenes M1 GAS;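 further: secreted streptokinase activity via plasminogen activation per viability signal from cell pellet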
T3 sequence (P10520 whole entry): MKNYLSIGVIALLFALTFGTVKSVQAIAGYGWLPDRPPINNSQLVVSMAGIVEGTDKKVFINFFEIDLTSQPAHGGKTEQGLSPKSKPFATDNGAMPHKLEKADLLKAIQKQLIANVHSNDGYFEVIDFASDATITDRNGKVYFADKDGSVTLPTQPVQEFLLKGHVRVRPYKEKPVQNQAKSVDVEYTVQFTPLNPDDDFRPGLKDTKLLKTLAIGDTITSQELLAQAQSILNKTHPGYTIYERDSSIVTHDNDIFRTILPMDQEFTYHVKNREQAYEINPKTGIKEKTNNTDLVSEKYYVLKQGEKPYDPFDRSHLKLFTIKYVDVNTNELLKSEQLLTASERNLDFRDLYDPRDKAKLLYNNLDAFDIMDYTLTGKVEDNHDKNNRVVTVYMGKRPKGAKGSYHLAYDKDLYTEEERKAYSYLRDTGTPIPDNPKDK

[11] = viability of uninfected HEp-2 cells – cell-based, HTS, cytotoxicity control for RSV inhibitor project, dose response (AID 2410); format: functional; settings: human respiratory syncytial virus
[12] = molecular target: T4, Short transient receptor potential channel 4 (Mus musculus, UniProt Q9QUQ5); assay: calcium entry via TRPC4 opening agents – cell-based, HEK293 TRPC4/mu-opioid, Fluo-4 calcium, dose response (AID 434937); format: functional
T4 sequence (Q9QUQ5 whole entry): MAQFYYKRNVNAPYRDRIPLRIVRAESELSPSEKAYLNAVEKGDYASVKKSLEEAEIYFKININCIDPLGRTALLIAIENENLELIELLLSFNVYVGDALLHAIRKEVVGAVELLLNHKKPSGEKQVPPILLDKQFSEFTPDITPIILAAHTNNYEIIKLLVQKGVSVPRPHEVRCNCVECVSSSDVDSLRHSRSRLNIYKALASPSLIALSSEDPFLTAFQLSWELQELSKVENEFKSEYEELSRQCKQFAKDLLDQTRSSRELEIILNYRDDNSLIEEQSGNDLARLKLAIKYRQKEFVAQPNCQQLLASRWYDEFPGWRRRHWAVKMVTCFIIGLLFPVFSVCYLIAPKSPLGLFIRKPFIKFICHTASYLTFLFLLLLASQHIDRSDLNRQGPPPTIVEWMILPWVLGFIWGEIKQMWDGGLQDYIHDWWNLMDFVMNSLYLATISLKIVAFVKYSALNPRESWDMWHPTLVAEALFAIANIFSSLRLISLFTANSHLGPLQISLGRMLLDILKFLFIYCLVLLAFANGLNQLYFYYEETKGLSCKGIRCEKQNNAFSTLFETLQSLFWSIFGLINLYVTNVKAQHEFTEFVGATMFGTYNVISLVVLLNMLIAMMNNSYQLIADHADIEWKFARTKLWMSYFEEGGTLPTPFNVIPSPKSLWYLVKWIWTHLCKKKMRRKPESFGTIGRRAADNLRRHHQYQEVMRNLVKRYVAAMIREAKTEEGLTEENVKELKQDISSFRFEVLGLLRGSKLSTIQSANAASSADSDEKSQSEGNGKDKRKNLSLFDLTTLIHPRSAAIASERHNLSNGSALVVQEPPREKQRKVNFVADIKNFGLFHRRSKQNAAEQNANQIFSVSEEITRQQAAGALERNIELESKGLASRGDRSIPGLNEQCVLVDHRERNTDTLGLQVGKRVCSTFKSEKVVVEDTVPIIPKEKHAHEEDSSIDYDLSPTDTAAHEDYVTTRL

[13] = test system: Streptococcus sp. 'group A'; assay: Streptococcus pyogenes SK(-)GAS viability under kanamycin – luminescence, BacTiterGlo, confirmation, counter-screen for streptokinase expression inhibitor project, dose response (AID 1900); format: functional, organism-based; settings: read-out: EC50
HEK293 [14] = assay: cells; format: functional, cell-based; settings: Homo sapiens; remark: listed apart in the source
X-box-binding protein 1 = X-box-binding protein 1 (Homo sapiens, UniProt P17861); format: functional, Cricetulus griseus;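 further: confirmatory dose-response counter-screen serving a CHOP assay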
[15] = molecular target: DNA damage-inducible transcript 3 protein (Mus musculus, UniProt P35639); format: functional, Cricetulus griseus
cells = format: functional
[16] = molecular target: T5, Replicative DNA helicase DnaB (Mycobacterium tuberculosis, UniProt P9WMR3); assay: DnaB intein splicing inhibitors, dose response, biochemical, cell-free fluorescence (AID 449749); format: functional
T5 sequence (P9WMR3 whole entry): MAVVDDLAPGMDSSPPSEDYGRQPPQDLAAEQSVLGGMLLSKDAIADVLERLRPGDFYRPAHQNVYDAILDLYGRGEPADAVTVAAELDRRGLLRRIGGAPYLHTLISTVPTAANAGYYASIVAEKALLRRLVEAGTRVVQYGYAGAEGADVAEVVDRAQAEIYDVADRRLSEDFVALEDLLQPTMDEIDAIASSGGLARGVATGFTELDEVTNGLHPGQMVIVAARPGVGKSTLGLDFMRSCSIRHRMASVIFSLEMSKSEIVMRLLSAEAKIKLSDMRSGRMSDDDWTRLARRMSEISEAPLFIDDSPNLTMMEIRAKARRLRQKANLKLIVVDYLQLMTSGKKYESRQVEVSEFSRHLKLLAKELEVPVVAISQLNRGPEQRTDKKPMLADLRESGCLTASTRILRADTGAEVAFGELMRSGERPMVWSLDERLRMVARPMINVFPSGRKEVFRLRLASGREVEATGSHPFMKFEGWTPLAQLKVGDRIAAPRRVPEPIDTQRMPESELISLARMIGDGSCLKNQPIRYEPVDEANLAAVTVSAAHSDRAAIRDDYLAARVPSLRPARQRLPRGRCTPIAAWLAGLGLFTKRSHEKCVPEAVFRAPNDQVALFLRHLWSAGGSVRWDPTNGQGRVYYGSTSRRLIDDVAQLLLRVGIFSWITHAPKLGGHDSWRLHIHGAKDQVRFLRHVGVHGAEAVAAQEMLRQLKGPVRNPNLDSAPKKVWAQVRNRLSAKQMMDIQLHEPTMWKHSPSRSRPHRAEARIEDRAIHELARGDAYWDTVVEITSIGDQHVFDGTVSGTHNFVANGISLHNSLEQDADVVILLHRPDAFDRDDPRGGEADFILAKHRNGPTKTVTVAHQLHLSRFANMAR

Protein RecA = molecular target: T6, Protein RecA (Mycobacterium tuberculosis, UniProt P9WHJ3); assay: Fluorescence Cell-Free Homogeneous Dose Retest to Identify Inhibitors of RecA-Intein Splicing Activity. [Related pubchem assays (depositor defined):AID2097, AID2223, AID489010, AID492950]; format: functional
T6 sequence (P9WHJ3 whole entry): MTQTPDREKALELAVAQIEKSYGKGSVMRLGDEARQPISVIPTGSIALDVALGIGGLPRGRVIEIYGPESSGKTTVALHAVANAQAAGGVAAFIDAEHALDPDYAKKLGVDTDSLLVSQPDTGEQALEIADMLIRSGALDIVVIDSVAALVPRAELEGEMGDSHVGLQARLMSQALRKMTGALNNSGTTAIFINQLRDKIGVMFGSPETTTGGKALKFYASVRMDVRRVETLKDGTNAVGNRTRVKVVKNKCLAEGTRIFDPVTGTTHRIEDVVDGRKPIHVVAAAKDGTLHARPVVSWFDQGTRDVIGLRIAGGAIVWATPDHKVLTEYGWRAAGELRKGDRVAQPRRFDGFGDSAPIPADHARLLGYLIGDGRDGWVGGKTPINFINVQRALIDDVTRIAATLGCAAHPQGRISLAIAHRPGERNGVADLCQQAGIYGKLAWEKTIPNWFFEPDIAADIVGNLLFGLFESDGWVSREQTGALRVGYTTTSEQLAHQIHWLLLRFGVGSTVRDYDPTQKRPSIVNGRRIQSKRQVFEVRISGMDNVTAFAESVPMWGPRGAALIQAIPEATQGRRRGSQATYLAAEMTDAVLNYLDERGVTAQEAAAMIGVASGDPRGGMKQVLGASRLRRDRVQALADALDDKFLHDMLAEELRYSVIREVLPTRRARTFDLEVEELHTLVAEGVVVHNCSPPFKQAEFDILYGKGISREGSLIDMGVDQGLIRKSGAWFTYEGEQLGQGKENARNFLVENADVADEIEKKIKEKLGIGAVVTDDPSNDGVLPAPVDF

T-cell = assay: loss of vesicle association with mouse CD8+ T cells – mouse 2C CD8+ T cells, flow cytometry, dose response (AID 485284); format: functional

Sequence of CAAX prenyl protease 2 (Saccharomyces cerevisiae S288c, UniProt Q03530) (Q03530 whole entry): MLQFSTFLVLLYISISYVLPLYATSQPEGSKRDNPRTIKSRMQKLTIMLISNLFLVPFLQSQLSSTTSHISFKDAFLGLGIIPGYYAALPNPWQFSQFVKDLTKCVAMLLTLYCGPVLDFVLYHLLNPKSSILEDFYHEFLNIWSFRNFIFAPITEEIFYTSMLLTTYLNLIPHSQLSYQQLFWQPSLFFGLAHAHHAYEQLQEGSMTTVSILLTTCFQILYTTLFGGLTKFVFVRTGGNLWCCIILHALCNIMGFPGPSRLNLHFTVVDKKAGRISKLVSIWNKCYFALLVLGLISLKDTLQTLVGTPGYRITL
Sequence of X-box-binding protein 1 (P17861 whole entry): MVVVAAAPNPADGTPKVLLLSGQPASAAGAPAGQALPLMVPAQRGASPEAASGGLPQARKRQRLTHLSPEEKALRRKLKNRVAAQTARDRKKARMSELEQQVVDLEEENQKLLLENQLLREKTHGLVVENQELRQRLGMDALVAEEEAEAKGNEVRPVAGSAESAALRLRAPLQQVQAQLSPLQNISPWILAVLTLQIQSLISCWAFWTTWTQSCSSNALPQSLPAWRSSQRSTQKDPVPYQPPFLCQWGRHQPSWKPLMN
Sequence of Trypsin (P00761 whole entry): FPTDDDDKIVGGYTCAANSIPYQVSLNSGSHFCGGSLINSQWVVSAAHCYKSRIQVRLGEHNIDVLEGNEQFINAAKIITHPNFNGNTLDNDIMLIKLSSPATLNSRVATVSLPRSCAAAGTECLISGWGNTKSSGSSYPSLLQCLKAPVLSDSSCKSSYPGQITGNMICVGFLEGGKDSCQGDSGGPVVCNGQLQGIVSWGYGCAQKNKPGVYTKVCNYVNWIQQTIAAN
Sequence of Glyceraldehyde-3-phosphate dehydrogenase (P04406 whole entry): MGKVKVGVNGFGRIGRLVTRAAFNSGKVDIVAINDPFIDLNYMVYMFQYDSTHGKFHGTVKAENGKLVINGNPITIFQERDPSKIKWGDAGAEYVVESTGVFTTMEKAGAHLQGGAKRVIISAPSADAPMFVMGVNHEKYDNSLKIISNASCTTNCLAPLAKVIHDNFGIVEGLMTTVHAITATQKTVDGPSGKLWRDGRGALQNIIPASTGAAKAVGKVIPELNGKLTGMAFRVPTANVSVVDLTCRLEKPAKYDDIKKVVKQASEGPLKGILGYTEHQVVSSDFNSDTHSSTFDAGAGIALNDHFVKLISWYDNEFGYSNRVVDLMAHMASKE
Sequence of Alkaline phosphatase, placental type (P05187 whole entry): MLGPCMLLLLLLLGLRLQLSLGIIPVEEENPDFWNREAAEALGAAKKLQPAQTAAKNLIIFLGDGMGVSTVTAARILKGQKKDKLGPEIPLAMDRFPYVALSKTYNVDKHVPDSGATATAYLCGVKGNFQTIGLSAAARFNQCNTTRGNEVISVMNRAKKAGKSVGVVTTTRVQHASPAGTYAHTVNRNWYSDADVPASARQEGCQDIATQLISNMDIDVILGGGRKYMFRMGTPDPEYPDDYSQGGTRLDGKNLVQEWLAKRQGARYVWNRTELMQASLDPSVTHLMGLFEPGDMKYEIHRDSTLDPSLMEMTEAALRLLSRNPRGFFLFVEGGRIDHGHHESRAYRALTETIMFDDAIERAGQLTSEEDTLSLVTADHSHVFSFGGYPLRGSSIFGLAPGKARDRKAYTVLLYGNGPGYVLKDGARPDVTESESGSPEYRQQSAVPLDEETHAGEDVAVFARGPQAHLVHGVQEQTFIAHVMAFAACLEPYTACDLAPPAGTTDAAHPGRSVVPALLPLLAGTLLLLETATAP
Sequence of DNA damage-inducible transcript 3 protein (P35639 whole entry): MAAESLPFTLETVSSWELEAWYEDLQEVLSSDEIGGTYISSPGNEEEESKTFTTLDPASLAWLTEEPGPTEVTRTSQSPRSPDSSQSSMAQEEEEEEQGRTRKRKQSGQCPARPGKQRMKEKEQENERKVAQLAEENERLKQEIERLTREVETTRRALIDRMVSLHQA
Sequence of Nucleotide-binding oligomerization domain-containing protein 2 (Q9HC29 whole entry, the tested form may be a part): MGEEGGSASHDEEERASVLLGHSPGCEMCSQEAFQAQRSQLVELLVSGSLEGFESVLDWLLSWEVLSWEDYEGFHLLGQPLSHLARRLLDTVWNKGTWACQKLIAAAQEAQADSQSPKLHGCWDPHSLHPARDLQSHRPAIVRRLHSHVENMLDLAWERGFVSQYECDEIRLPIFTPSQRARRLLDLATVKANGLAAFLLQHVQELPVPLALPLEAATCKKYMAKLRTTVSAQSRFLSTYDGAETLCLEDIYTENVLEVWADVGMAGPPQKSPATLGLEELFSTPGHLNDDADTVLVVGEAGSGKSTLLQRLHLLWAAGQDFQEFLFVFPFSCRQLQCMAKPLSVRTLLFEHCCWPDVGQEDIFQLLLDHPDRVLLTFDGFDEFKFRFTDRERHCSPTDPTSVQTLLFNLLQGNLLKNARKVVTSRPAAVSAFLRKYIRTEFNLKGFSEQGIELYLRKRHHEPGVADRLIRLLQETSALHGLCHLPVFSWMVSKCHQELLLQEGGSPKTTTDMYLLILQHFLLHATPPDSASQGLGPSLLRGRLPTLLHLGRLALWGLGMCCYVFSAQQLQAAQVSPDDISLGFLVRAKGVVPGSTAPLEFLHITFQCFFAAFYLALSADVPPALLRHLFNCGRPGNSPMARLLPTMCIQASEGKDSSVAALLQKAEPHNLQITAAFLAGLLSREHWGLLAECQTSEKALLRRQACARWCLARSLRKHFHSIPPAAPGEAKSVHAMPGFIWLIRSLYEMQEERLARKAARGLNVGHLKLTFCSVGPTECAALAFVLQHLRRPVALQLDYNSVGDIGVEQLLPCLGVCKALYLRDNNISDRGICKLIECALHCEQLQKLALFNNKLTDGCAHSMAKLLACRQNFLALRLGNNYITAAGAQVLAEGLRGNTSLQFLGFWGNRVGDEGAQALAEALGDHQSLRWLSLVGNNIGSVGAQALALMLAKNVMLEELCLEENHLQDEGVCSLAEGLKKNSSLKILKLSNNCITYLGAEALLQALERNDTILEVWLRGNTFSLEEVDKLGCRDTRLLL

CCCc1n[nH]c2c1C(=O)CC(C)(C)C2
IC50 [1]: > 100 µM (inactive)
IC50 [2]: 14.4 µM (active)
IC50 [3]: > 100 µM (not active)

CCn1c(=O)c(-c2ccccc2)c(O)c2ccccc21
AC50 (CAAX prenyl protease 2 [4]): 13.9 µM (active)
AC50 (Trypsin): 7.88 µM (active)
AC50 (CAAX prenyl protease 2 [5]): 11.2 µM (active)

Cc1ccc(-c2nc3ccc(C)cn3c2CC(=O)N(C)C)cc1
AC50 (CAAX prenyl protease 2 [5]): 16.8 µM (active)

Cc1csc2c(N3CCN(C(=O)Nc4ccc(Cl)c(Cl)c4)CC3)ncnc12
IC50 (HEK293 [6]): 8.45 µM (active)
EC50 (Streptococcus): 57.1 µM (active)
EC50 (HEK293 [7]): 4.76 µM (active)
EC50 [8]: 5 µM (active)
IC50 (HEK293 [9]): 3.23 µM (active)
IC50 (HEK293 [10]): 4.78 µM (active)
EC50 (Streptokinase A): 14.8 µM (active)
CC50 [11]: 43.7 µM (active)
EC50 [12]: 1.88 µM (active)
EC50 [13]: 3.4 µM (active)
IC50 (HEK293 [14]): > 20 µM (inactive)

CC1=C(C(=O)Nc2ccc(C)cc2C)C(c2cccc(Cl)c2)n2nc(C(=O)OC(C)C)nc2N1 (centres undefined)
Absolute IC50 (XBP1) (X-box-binding protein 1): 10 µM
Absolute IC50 (CHOP) [15]: 10 µM

COc1ccc(NC(=O)Nc2ccc(O)c3ccccc23)cc1
IC50 (cells): > 50 µM (active)
AC50 [16]: 18 µM (active)
EC50 (Protein RecA): 0.722 µM (active)
EC50 (T-cell): 12.5 µM (active)
